Test results published in PMC5835169 (Clinical microbiology and infection : the official …, 2017).
Values after ≈ are worked out from the molar mass of the structure shown. Where no end group is shown, it is not given here.

Legend:
mouse lungs = assay: Pulmonary toxicity in uninfected mice; format: in vivo, C57BL/6J mice; conditions: for pulmonary toxicity: 0.35 mg/kg i.t., total inflammatory cells, differential cell counts, inflammation-associated genes; for effect on cell differential and inflammatory mediators in the lungs: uninfected mice, 7µg i.t. (7 times the minimum effective dose), 24h
P. aeruginosa P003 = format: cell-based; conditions: MDR strain P003 isolated from cystic fibrosis patients
P. aeruginosa P002 = format: cell-based; conditions: MDR strain P002 isolated from cystic fibrosis patients
P. aeruginosa P005 = format: cell-based; conditions: MDR strain P005 isolated from cystic fibrosis patients
P. aeruginosa TRPA111 = format: cell-based; conditions: MDR strain TRPA111 isolated from cystic fibrosis patients
P. aeruginosa P001 = format: cell-based; conditions: MDR strain P001 isolated from cystic fibrosis patients
P. aeruginosa TRPA321 = format: cell-based; conditions: MDR strain TRPA321 isolated from cystic fibrosis patients
P. aeruginosa P004 = format: cell-based; conditions: MDR strain P004 isolated from cystic fibrosis patients
P. aeruginosa TRPA108 = format: cell-based; conditions: MDR strain TRPA108 isolated from cystic fibrosis patients
[1] = tested on: differentiated primary HBE cells; assay: Transepithelial Electrical Resistance; format: cell-based, human; conditions: apical, 24 hours after administration
HBE cells = assay: Toxicity to HBE cells; format: cell-based, human; conditions: 16µM
P. aeruginosa PAO1 = format: cell-based; conditions: control strain PAO1 susceptible to antibiotics and AMPs

Compound	pulmonary toxicity (mouse lungs)	effect on cell differential and inflammatory mediators in the lungs (mouse lungs)	MIC (P. aeruginosa P003) [µM]	MIC (P. aeruginosa P002) [µM]	MIC (P. aeruginosa P005) [µM]	MIC (P. aeruginosa TRPA111) [µM]	MIC (P. aeruginosa P001) [µM]	MIC (P. aeruginosa TRPA321) [µM]	MIC (P. aeruginosa P004) [µM]	MIC (P. aeruginosa TRPA108) [µM]	final reduction in TEER / recovery ([1]; 32µM peptide in PBS)	final reduction in TEER / recovery ([1]; 64µM peptide in PBS)	toxicity to HBE cells (HBE cells)	MIC (P. aeruginosa PAO1) [µM]
CC[C@H](C)[C@H](NC(=O)[C@H](CCCCN)NC(=O)[C@H](CCC(=O)O)NC(=O)[C@H](CCCCN)NC(=O)[C@H](CO)NC(=O)[C@H](CCCCN)NC(=O)[C@H](CCCNC(=N)N)NC(=O)[C@H](Cc1ccccc1)NC(=O)[C@H](Cc1ccccc1)NC(=O)[C@H](CC(=O)O)NC(=O)CNC(=O)[C@H](CC(C)C)NC(=O)[C@@H](N)CC(C)C)C(=O)NCC(=O)N[C@@H](CCCCN)C(=O)N[C@@H](CCC(=O)O)C(=O)N[C@@H](Cc1ccccc1)C(=O)N[C@@H](CCCCN)C(=O)N[C@@H](CCCNC(=N)N)C(=O)N[C@H](C(=O)N[C@H](C(=O)N[C@@H](CCC(N)=O)C(=O)N[C@@H](CCCNC(=N)N)C(=O)N[C@H](C(=O)N[C@@H](CCCCN)C(=O)N[C@@H](CC(=O)O)C(=O)N[C@@H](Cc1ccccc1)C(=O)N[C@@H](CC(C)C)C(=O)N[C@@H](CCCNC(=N)N)C(=O)N[C@@H](CC(N)=O)C(=O)N[C@@H](CC(C)C)C(=O)N[C@H](C(=O)N1CCC[C@H]1C(=O)N[C@@H](CCCNC(=N)N)C(=O)N[C@H](C(=O)N[C@@H](CCC(=O)O)C(=O)N[C@@H](CO)C(=O)O)[C@@H](C)O)C(C)C)[C@@H](C)CC)C(C)C)[C@@H](C)CC [LL37, reference compound]	does not cause pulmonary toxicity	no effect	32 (≈ 144 µg/mL)	32 (≈ 144 µg/mL)	8 (≈ 35.9 µg/mL)	2 (≈ 8.99 µg/mL)	32 (≈ 144 µg/mL)	32 (≈ 144 µg/mL)	8 (≈ 35.9 µg/mL)	2 (≈ 8.99 µg/mL)	1/2	2/3		
RRWVRRVRRVWRRVVRVVRRWVRR [WLBU2]	does not cause pulmonary toxicity	no effect	6	4	2	1	6	2	2	1	completely recovered	completely recovered	not toxic	2
